Reference: EP2951180B1, “2,6,7,8 SUBSTITUTED PURINES AS HDM2 INHIBITORS” (Merck Sharp & Dohme Corp., priority 2013, dated 2014)

target: T1, HDM2 (Homo sapiens, UniProt Q00987); assay: HDM2 FRET assay (inhibition of binding of FITC labeled p53-pocket peptide to HDM2); settings: 0.5 nM HDM2 (residues 17 to 125), 3nM peptide, two hour incubation at room temperature; read-out: FRET IC50
T1 construct: Thioredoxin (N); made in house; host or cells: E. coli strain BL21(DE3)Rosetta
Outline: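 TR-FRET with 0.5 nM His-tagged recombinant HDM2, 3 nM FITC-labelled p53 peptide and 0.25 nM Tb-anti-His antibody in PBS, 0.01% BSA, 0.01% Tween-20, 0.1% DMSO. IC50 from em520/em495 ratio over 10-point dilutions, 4-parameter logistic fit.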

T1 sequence (Q00987 17-125): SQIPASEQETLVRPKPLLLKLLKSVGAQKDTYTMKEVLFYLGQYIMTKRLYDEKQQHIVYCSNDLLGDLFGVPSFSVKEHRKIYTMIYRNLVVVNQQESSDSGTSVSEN

SMILES | IC50 [nM]
C[C@H]1CC[C@H](Cn2c(N3CCOC[C@H]3c3ccccc3)nc3nc(-c4noc(=O)[nH]4)nc(-c4cc(Cl)cc(CO)c4)c32)CC1 [Example 16.44, 3-{6-[3-chloro-5-(hydroxymethyl)phenyl]-7-[(trans-4-methylcyclohexyl)methyl]-8-[(3R)-3-phenylmorpholin-4-yl]-7H-purin-2-yl}-1,2,4-oxadiazol-5(4H)-one] | 0.205
C[C@H]1CC[C@H](Cn2c(N3CCOC[C@H]3CO)nc3nc(-c4noc(=O)[nH]4)nc(-c4cccc(Cl)c4)c32)CC1 [Example 16.45, 3-{6-(3-chlorophenyl)-8-[(3R)-3-(hydroxymethyl)mor pholin-4-yl]-7-[(trans-4-methylcyclohexyl)methyl]-7H-purin-2-yl}-1,2,4-oxadiazol-5(4H)-one] | 47.5
C[C@H](CO)Nc1nc2nc(-c3n[nH]c(=O)o3)nc(-c3cccc(Cl)c3)c2n1C[C@H]1CC[C@H](C)CC1 [Example 16.46, 5-{6-(3-chlorophenyl)-8-{[(1R)-2-hydroxy-1-methylethyl]amino}-7-[(trans-4-methylcyclohexyl)methyl]-7H-purin-2-yl}-1,3,4-oxadiazol-2(3H)-one] | 71
CC[C@@H]1COCCN1c1nc2nc(-c3noc(=O)[nH]3)nc(-c3cccc(Cl)c3)c2n1C[C@H]1CC[C@H](C)CC1 [Example 16.47, 3-{6-(3-chlorophenyl)-8-[(3R)-3-ethylmorpholin-4-yl]-7-[(trans-4-methylcyclohexyl)methyl]-7H-purin-2-yl}-1,2,4-oxadiazol-5(4H)-one] | 11.1
COC(=O)[C@@H]1COCCN1c1nc2nc(-c3noc(=O)[nH]3)nc(-c3cccc(Cl)c3)c2n1C[C@H]1CC[C@H](C)CC1 [Example 16.48, methyl (3S)-4-[6-(3-chlorophenyl)-7-[(trans-4-methylcyclohexyl)methyl]-2-(5-oxo-4,5-dihydro-1,2,4-oxadiazol-3-yl)-7H-purin-8-yl]morpholine-3-carboxylate] | 88.3
C[C@H](Nc1nc2nc(-c3noc(=O)[nH]3)nc(-c3cccc(Cl)c3)c2n1C[C@H]1CC[C@H](C)CC1)c1cccc(F)c1 [Example 16.49, 3-{6-(3-chlorophenyl)-8-{[(1S)-1-(3-fluorophenyl)ethyl]amino}-7-[(trans-4-methylcyclohexyl)methyl]-7H-purin-2-yl}-1,2,4-oxadiazol-5(4H)-one] | 1.63
CC[C@H](Nc1nc2nc(-c3noc(=O)[nH]3)nc(-c3cccc(Cl)c3)c2n1C[C@H]1CC[C@H](C)CC1)c1ccccc1 [Example 16.50, 3-[6-(3-chlorophenyl)-7-[(trans-4-methylcyclohexyl)methyl]-8-{[(1S)-1-phenylpropyl]amino} -7H-purin-2-yl]-1,2,4-oxadiazol-5(4H)-one] | 2.67
C[C@@H]1CNCCN1c1nc2nc(-c3noc(=O)[nH]3)nc(-c3cccc(Cl)c3)c2n1C[C@H]1CC[C@H](C)CC1 [Example 16.54, 3-{6-(3-chlorophenyl)-7-[(trans-4-methylcyclohexyl)methyl]-8-[(2R)-2-methylpiperazin-1-yl]-7H-purin-2-yl}-1,2,4-oxadiazol-5(4H)-one] | 59
C[C@H](Nc1nc2nc(-c3n[nH]c(=O)o3)nc(-c3cccc(Cl)c3)c2n1C[C@H]1CC[C@H](C)CC1)c1cccc(F)c1 [Example 16.55, 5-{6-(3-chlorophenyl)-8-{[(1S)-1-(3-fluorophenyl)ethyl]amino}-7-[(trans-4-methylcyclohexyl)methyl]-7H-purin-2-yl}-1,3,4-oxadiazol-2(3H)-one] | 5.04
CN(Cc1ccccc1)c1nc2nc(-c3noc(=O)[nH]3)nc(-c3cccc(Cl)c3)c2n1C[C@H]1CC[C@H](C)CC1 [Example 16.56, 3-{8-[benzyl(methyl)amino]-6-(3-chlorophenyl)-7-[(trans-4-methylcyclohexyl)methyl]-7H-purin-2-yl}-1,2,4-oxadiazol-5(4H)-one] | 42.9
C[C@H](O)[C@H](Nc1nc2nc(-c3n[nH]c(=O)o3)nc(-c3cccc(Cl)c3)c2n1C[C@H]1CC[C@H](C)CC1)c1ccccc1 [Example 16.57, 5-{6-(3-chlorophenyl)-8-{[(1R,2S)-2-hydroxy-1-phenylpropyl]amino} -7-[(trans-4-methylcyclohexyl)methyl]-7H-purin-2-yl}-1,3,4-oxadiazol-2(3H)-one] | 5.54
CC[C@@H]1COCCN1c1nc2nc(-c3n[nH]c(=O)o3)nc(-c3cccc(Cl)c3)c2n1C[C@H]1CC[C@H](C)CC1 [Example 16.58, 5-{6-(3-chlorophenyl)-8-[(3R)-3-ethylmorpholin-4-yl]-7-[(trans-4-methylcyclohexyl)methyl]-7H-purin-2-yl}-1,3,4-oxadiazol-2(3H)-one] | 21.4
COC[C@@H]1COCCN1c1nc2nc(-c3noc(=O)[nH]3)nc(-c3cccc(Cl)c3)c2n1C[C@H]1CC[C@H](C)CC1 [Example 16.59, 3-{6-(3-chlorophenyl)-8-[(3R)-3-(methoxymethyl)mor pholin-4-yl]-7-[(trans-4-methylcyclohexyl)methyl]-7H-purin-2-yl}-1,2,4-oxadiazol-5(4H)-one] | 19
C[C@@H]1COC[C@@H](C)N1c1nc2nc(-c3noc(=O)[nH]3)nc(-c3cccc(Cl)c3)c2n1C[C@H]1CC[C@H](C)CC1 [Example 16.60, 3-{6-(3-chlorophenyl)-8-[(3R,5R)-3,5-dimethylmorpholin-4-yl]-7-[(trans-4-methylcyclohexyl)methyl]-7H-purin-2-yl}-1,2,4-oxadiazol-5(4H)-one] | 2.23
CC[C@H](Nc1nc2nc(-c3n[nH]c(=O)o3)nc(-c3cccc(Cl)c3)c2n1C[C@H]1CC[C@H](C)CC1)c1ccccc1 [Example 16.61, 5-[6-(3-chlorophenyl)-7-[(trans-4-methylcyclohexyl)methyl]-8-{[(1S)-1-phenylpropyl]amino} -7H-purin-2-yl]-1,3,4-oxadiazol-2(3H)-one] | 9.67
CN(Cc1ccccc1)c1nc2nc(-c3n[nH]c(=O)o3)nc(-c3cccc(Cl)c3)c2n1C[C@H]1CC[C@H](C)CC1 [Example 16.62, 5-{8-[benzyl(methyl)amino]-6-(3-chlorophenyl)-7-[(trans-4-methylcyclohexyl)methyl]-7H-purin-2-yl}-1,3,4-oxadiazol-2(3H)-one] | 136
COC(C)(C)[C@@H]1COCCN1c1nc2nc(-c3noc(=O)[nH]3)nc(-c3cccc(Cl)c3)c2n1C[C@H]1CC[C@H](C)CC1 [Example 16.63, 3-{6-(3-chlorophenyl)-8-[(3S)-3-(1-methoxy-1-methylethyl)morpholin-4-yl]-7-[(trans-4-methylcyclohexyl)methyl]-7H-purin-2-yl}-1,2,4-oxadiazol-5(4H)-one] | 19.7
CC[C@H](Nc1nc2nc(-c3noc(=O)[nH]3)nc(-c3cccc(Cl)c3)c2n1C[C@H]1CC[C@H](C)CC1)c1cccc(F)c1 [Example 16.64, 3-{6-(3-chlorophenyl)-8-{[(1S)-1-(3-fluorophenyl)propyl]amino}-7-[(trans-4-methylcyclohexyl)methyl]-7H-purin-2-yl}-1,2,4-oxadiazol-5(4H)-one] | 3.16
C[C@@H]1COC[C@H](C)N1c1nc2nc(-c3noc(=O)[nH]3)nc(-c3cccc(Cl)c3)c2n1C[C@H]1CC[C@H](C)CC1 [Example 16.67, 3-{6-(3-chlorophenyl)-8-[(3R,5S)-3,5-dimethylmorpholin-4-yl]-7-[(trans-4-methylcyclohexyl)methyl]-7H-purin-2-yl}-1,2,4-oxadiazol-5(4H)-one] | 6.36
C[C@@H]1CN(C)C(=O)CN1c1nc2nc(-c3noc(=O)[nH]3)nc(-c3cccc(Cl)c3)c2n1C[C@H]1CC[C@H](C)CC1 [Example 16.68, (5R)-4-[6-(3-chlorophenyl)-7-[(trans-4-methylcyclohexyl)methyl]-2-(5-oxo-4,5-dihydro-1,2,4-oxadiazol-3-yl)-7H-purin-8-yl]-1,5-dimethylpiperazin-2-one] | 11.5
C[C@H]1CC[C@H](Cn2c(N3CCC[C@H]3C(F)(F)F)nc3nc(-c4noc(=O)[nH]4)nc(-c4cccc(Cl)c4)c32)CC1 [Example 16.69, 3-{6-(3-chlorophenyl)-7-[(trans-4-methylcyclohexyl)methyl]-8-[(2S)-2-(trifluoromethyl)pyrrolidin-1-yl]-7H-purin-2-yl}-1,2,4-oxadiazol-5 (4H)-one] | 0.918
C[C@H]1CC[C@H](Cn2c(N3CCC[C@H]3C(F)(F)F)nc3nc(-c4noc(=O)[nH]4)nc(-c4cncc(Cl)c4)c32)CC1 [Example 16.74, 3-{6-(5-chloropyridin-3-yl)-7-[(trans-4-methylcyclohexyl)methyl]-8-[(2S)-2-(trifluoromethyl)pyrrolidin-1-yl]-7H-purin-2-yl}-1,2,4-oxadiazol-5(4H)-one] | 0.585
CC(C)[C@@H]1COCCN1c1nc2nc(-c3n[nH]c(=O)o3)nc(-c3cccc(Cl)c3)c2n1C[C@H]1CC[C@H](C)CC1 [Example 16.75, 5-{6-(3-chlorophenyl)-7-[(trans-4-methylcyclohexyl)methyl]-8-[(3R)-3-(1-methylethyl)morpholin-4-yl]-7H-purin-2-yl}-1,3,4-oxadiazol-2(3H)-one] | 14.7
CC[C@H](Nc1nc2nc(-c3n[nH]c(=O)o3)nc(-c3cccc(Cl)c3)c2n1C[C@H]1CC[C@H](C)CC1)c1cccc(F)c1 [Example 16.76, 5-{6-(3-chlorophenyl)-8-{[(1S)-1-(3-fluorophenyl)propyl]amino}-7-[(trans-4-methylcyclohexyl)methyl]-7H-purin-2-yl}-1,3,4-oxadiazol-2(3H)-one] | 13.2
C[C@H]1CC[C@H](Cn2c(N3CCOCC34CC4)nc3nc(-c4noc(=O)[nH]4)nc(-c4cccc(Cl)c4)c32)CC1 [Example 16.79, 3-[6-(3-chlorophenyl)-7-[(trans-4-methylcyclohexyl)methyl]-8-(7-oxa-4-azaspiro[2.5]oct-4-yl)-7H-purin-2-yl]-1,2,4-oxadiazol-5(4H)-one] | 21.6
